Data on 16 molecules can be found in patent US4684647A, “Anti-bacterial pyrido-benzothiazine derivative and pharmaceutical composition therefor” (priority 1984, dated 1987).

Usually MIC stands for the lowest concentration found to suppress growth.

In series [1] the test system is Escherichia coli (981). The experiment in a line: MIC in agar, Escherichia coli (981). In kind it is cell-based. The following applies: Isosensitest agar, 10^4 CFU, 24 h, 37° C. Here is the method: (§1) The antibacterial activity (minimum inhibiting concentration, MIC) of the compounds according to the invention has been determined in agar, by adding the compound under evaluation at concentrations of from 0.1 to 100 meg/ml by means of a "multipoint inoculator" (Denley Techn. Ltd., England); the medium used was Isosensitest agar (Oxoid); the bacterial inoculate was 10^4 colony forming unity (CFU) per inoculation point. The reading of the results was done after 24 hour-incubation in thermostat at 37° C.
(§2) The MIC was defined as the lowest concentration of chemotherapeutic agent still capable of totally inhibiting the growth of bacteria, as detected from a lack of colony development in the inoculation point.
(§3) The microorganisms used for evaluating the activity of the specific compounds have been: Escherichia coli, Klebsiella P., Enterobacter, Serratia, Citrobacter, Proteus (+), Salmonella, Pseudomonas, Staphylococcus. All the compounds according to the present invention are provided with antibacterial activity against one or more microorganism(s) among those above mentioned. Some of such compounds are absorbed after having been administered orally to the animals, and are particularly useful as disinfectants of the urinary tract in that they are excreted in a high percentage (50-70% over 24 hours after the administration of 50 mg/kg per os) as such, and in metabolic active form, through the urine.
A = Escherichia coli (981)

Series [2] relates to Pseudomonas aeruginosa. The experiment in a line: MIC in agar, Pseudomonas aeruginosa. The conditions noted are these: Isosensitest agar, 10^4 CFU, 24 h, 37° C., read-out: MIC, B = Pseudomonas aeruginosa. The series is classed as cell-based. Here is the method: as §1, §2, §3
B = P udomonas aeruginosa

Series [3] deals with Staphylococcus aureus. The experiment in a line: MIC in agar, Staphylococcus aureus. The conditions noted are these: Isosensitest agar, 10^4 CFU, 24 h, 37° C. The series is classed as cell-based. As to the method:
as §1, §2, §3

For series [4], the system named is Proteus Morgani (indole +). The experiment in a line: MIC in agar, Proteus Morgani (indole +). In kind it is cell-based. The conditions noted are these: Isosensitest agar, 10^4 CFU, 24 h, 37° C.; read-out: MIC, D = Proteus Morgani (indole +). Here is the method:
as §1, §2, §3
D = Proteus Morgani (indole +)

The subject of series [5] is Klebsiella pneumoniae. In words: MIC in agar, Klebsiella pneumoniae. The series is classed as cell-based. The conditions noted are these: Isosensitest agar, 10^4 CFU, 24 h, 37° C., read-out: MIC, E = Klebsiella pneumoniae. Here is the method: as §1, §2, §3
E = Klebsiella pneumoniae

Series [6] has as its system Enterobacter. In words: MIC in agar, Enterobacter. In kind it is cell-based. The following applies: Isosensitest agar, 10^4 CFU, 24 h, 37° C., read-out: MIC, F = Enterobacter. As to the method: as §1, §2, §3
Series [7] has as its system Citrobacter. In words: MIC in agar, Citrobacter. In kind it is cell-based. The conditions noted are these: Isosensitest agar, 10^4 CFU, 24 h, 37° C., read-out: MIC, G = Citrobacter. Here is the method:
as §1, §2, §3

The subject of series [8] is bacteria. In words: antibacterial activity in vitro, overall. The series is classed as cell-based. The following applies: for anti-bacterial activity in vitro: Table 1; for activity with chlorine instead of fluorine in the X-position: comparison with (a), (c), (p). As to the method:
as §1, §2, §3

Series [9] is described as follows: in vivo. The following applies: rat, po. As to the method: In Table 4 the percentage of urinary excretion of compound (h) is reported, as measured in the 24 hours successive to oral administration of the same to rats.
Each value is the average of three tested rats.
The tests have been performed in comparison with Ofloxacin, a well known antibacterial compound. The amount of excreted product has been determined with microbiological analysis, by using Klebsiella Pneumoniae as the testing microorganism.

The nature of series [10]: pharmacokinetic test, absorption. In kind it is in vivo.

SMILES strings stand for the structures. In brackets after ≈: the same amount, converted by molar mass. Where only a bound is given, the exact number is not on record here.

Take `O=C(O)c1cn2c3c(c(N4CCNCC4)c(F)cc3c1=O)SCC2` [(g)]: the MIC in [1] was 0.39 mg/L (≈ 1.12 µM); in series [2], 12.5 mg/L (≈ 35.8 µM); in [3] it was 0.78 mg/L (≈ 2.23 µM); in series [4] it was 1.56 mg/L (≈ 4.46 µM); in series [5], under 0.39 mg/L; in series [6], under 0.39 mg/L. For the same molecule, in series [7], the MIC was determined as 0.78 mg/L (≈ 2.23 µM). Moreover, the “anti-bacterial activity in vitro” value in [8] is “very good and comparable anti-bacterial activity”.

`CC1COc2c(N3CCN(C)CC3)c(F)cc3c(=O)c(C(=O)O)cn1c23` (centres unmarked) [Ofloxacin, reference compound]: the results for the dose excreted at 24 h in series [9] (20 mg/kg) and in series [9] (50 mg/kg) were 61 ± 4.58% and 54.5 ± 5.29%, respectively.

On to `CC1CN(c2c(F)cc3c(=O)c(C(=O)O)cn4c3c2SCC4)CC(C)N1` (centres unmarked) [(m)], for which the MIC came to 6.25 mg/L (≈ 16.6 µM) in series [1]; 100 mg/L (≈ 265 µM) in series [2]; 3.12 mg/L (≈ 8.27 µM) in series [3]; 25 mg/L (≈ 66.2 µM) in series [4]; 6.25 mg/L (≈ 16.6 µM) in series [5]; 3.12 mg/L (≈ 8.27 µM) in [6]. The MIC in [7] amounted to 12.5 mg/L (≈ 33.1 µM).

Consider `CC1CSc2c(N3CCNCC3)c(F)cc3c(=O)c(C(=O)O)cn1c23` (centres unmarked) [(r)], for which the MIC in series [1] was 0.78 mg/L (≈ 2.15 µM); in [2], 12.5 mg/L (≈ 34.4 µM); in series [3], 0.78 mg/L (≈ 2.15 µM); in series [5], under 0.39 mg/L; in series [6], under 0.39 mg/L. Besides, the “anti-bacterial activity in vitro” value in series [8] is “very good and comparable anti-bacterial activity”.

As to `O=C(O)c1cn2c3c(c(N4CCCC4)c(F)cc3c1=O)SCC2` [(c)], the MIC is 1.56 mg/L (≈ 4.67 µM) in series [1]; 3.12 mg/L (≈ 9.33 µM) in series [2]; under 0.39 mg/L in [3]; 3.12 mg/L (≈ 9.33 µM) in series [4]; 1.56 mg/L (≈ 4.67 µM) in series [5]; 1.56 mg/L (≈ 4.67 µM) in [6]. Further, the MIC in series [7] worked out at 25 mg/L (≈ 74.8 µM). Further, the “anti-bacterial activity in vitro” value in series [8] was “very good and comparable anti-bacterial activity”.

On to `CC1CSc2c(N3CCN(C)CC3)c(F)cc3c(=O)c(C(=O)O)cn1c23` (centres unmarked) [(p)], for which the MIC in series [1] was 0.78 mg/L (≈ 2.07 µM); in series [2], 50 mg/L (≈ 132 µM); in series [3], 0.78 mg/L (≈ 2.07 µM); in series [5], under 0.39 mg/L; in series [6], under 0.39 mg/L. Further, the “anti-bacterial activity in vitro” value in series [8] is “very good and comparable anti-bacterial activity”.

Consider `O=C(O)c1cn2c3c(c(N4CCN(CC(F)(F)F)CC4)c(F)cc3c1=O)SCC2` [(i)], for which the MIC in series [1] is over 50 mg/L; in series [2], over 50 mg/L; in series [3] it was 0.39 mg/L (≈ 0.904 µM); in series [4] it was over 50 mg/L; in series [5] it was over 50 mg/L; in series [6] it was over 50 mg/L. Moreover, the MIC in series [7] stood at 12.5 mg/L (≈ 29 µM).

Turning to `CC1CSc2c(Cl)c(F)cc3c(=O)c(C(=O)O)cn1c23` (centres unmarked) [(n), 9-fluoro-10-chloro-3-methyl-7-oxo-2,3-dihydro-7H-pyrido[1,2,3 de][1,4]benzothiazine-6-carboxylic acid], the MIC in series [1] came out at 0.39 mg/L (≈ 1.24 µM); in [2], 25 mg/L (≈ 79.7 µM); in series [3], 0.39 mg/L (≈ 1.24 µM); in series [5], 0.78 mg/L (≈ 2.49 µM); in [6] it was 0.39 mg/L (≈ 1.24 µM). Moreover, the “anti-bacterial activity in vitro” value in series [8] was “very good and comparable anti-bacterial activity”.

Consider `O=C(O)c1cn2c3c(c(N4CCCC4)c(F)cc3c1=O)S(=O)(=O)CC2` [(f), 9-fluoro-10-(1-pyrrolidinyl)-7-oxo-2,3-dihydro-7H-pyrido[1,2,3 de][1,4]benzothiazine-1,1-dioxido-6-carboxylic acid], for which the MIC in [1] was 3.12 mg/L (≈ 8.52 µM); in series [2], over 50 mg/L; in series [3], 3.12 mg/L (≈ 8.52 µM); in series [4], over 50 mg/L; in series [5] it was 25 mg/L (≈ 68.2 µM); in series [6], 25 mg/L (≈ 68.2 µM). Further, the MIC in series [7] was found to be 25 mg/L (≈ 68.2 µM).

Turning to `O=C(O)c1cn2c3c(c(N4CCCC4)c(Cl)cc3c1=O)SCC2` [Comparison (d), reference compound], the MIC in series [1] is over 50 mg/L; in [2], over 50 mg/L; in series [3] it was 0.78 mg/L (≈ 2.22 µM); in series [4], 3.12 mg/L (≈ 8.89 µM); in [5], 12.5 mg/L (≈ 35.6 µM); in series [6] it was over 50 mg/L. Also, the minimal inhibitory concentration (MIC) in series [7] is over 50 mg/L. The “activity with chlorine instead of fluorine in the X-position” value (“activity with chlorine instead” for short) in series [8] is reported as “strongly reduced”.

As for `O=C(O)c1cn2c3c(c(Cl)c(F)cc3c1=O)SCC2` [(a), 9-fluoro-10-chloro-7-oxo-2,3-dihydro-7H-pyrido[1,2,3de][1,4]benzothiazine-6-carboxylic acid], the MIC is 0.39 mg/L (≈ 1.3 µM) in series [1]; over 25 mg/L in series [2]; 0.39 mg/L (≈ 1.3 µM) in series [3]; 1.56 mg/L (≈ 5.21 µM) in [4]; 0.78 mg/L (≈ 2.6 µM) in [5]; 0.39 mg/L (≈ 1.3 µM) in series [6]. The MIC in [7] came to 0.78 mg/L (≈ 2.6 µM). The “anti-bacterial activity in vitro” value in series [8] was “very good and comparable anti-bacterial activity”. In addition, the “absorption” value in series [10] is reported as “not at all absorbed”.

Take `CC1CSc2c(F)c(F)cc3c(=O)c(C(=O)O)cn1c23` (centres unmarked) [(o), 9,10-difluoro-3-methyl-7-oxo-2,3-dihydro-7H-pyrido[1,2,3 de][1,4]benzothiazine-6-carboxylic acid]: the “anti-bacterial activity in vitro” value in series [8] was “very good and comparable anti-bacterial activity”.

Consider `O=C(O)c1cn2c3c(c(N4CCN(C(=O)C(F)(F)F)CC4)c(F)cc3c1=O)SCC2` [(l)], for which the MIC is under 0.39 mg/L in series [1]; 12.5 mg/L (≈ 28.1 µM) in series [2]; 1.56 mg/L (≈ 3.5 µM) in series [3]; 1.56 mg/L (≈ 3.5 µM) in [4]; under 0.39 mg/L in series [5]; under 0.39 mg/L in [6]. For the same molecule, the MIC in series [7] came out at 0.39 mg/L (≈ 0.876 µM). Besides, in [8], the “anti-bacterial activity in vitro” value was “very good and comparable anti-bacterial activity”.

For `O=C(O)c1cn2c3c(c(Cl)c(Cl)cc3c1=O)SCC2` [Comparison (b), reference compound], the MIC was over 50 mg/L in [1]; over 50 mg/L in [2]; 0.78 mg/L (≈ 2.47 µM) in [3]; 6.25 mg/L (≈ 19.8 µM) in series [4]; 12.5 mg/L (≈ 39.5 µM) in series [5]; over 50 mg/L in [6]. In series [7], the MIC is over 50 mg/L. Also, the “activity with chlorine instead” value in series [8] is “strongly reduced”.

Take `CC1CSc2c(N3CCN(C)CC3)c(Cl)cc3c(=O)c(C(=O)O)cn1c23` (centres unmarked) [Comparison (q), reference compound]: the MIC in [1] was over 50 mg/L; in [2] it was over 12.5 mg/L; in [3] it was 3.12 mg/L (≈ 7.92 µM); in series [5], 12.5 mg/L (≈ 31.7 µM); in [6], over 50 mg/L. Also, the “activity with chlorine instead” value in series [8] is “strongly reduced”.

For `O=C(O)c1cn2c3c(c(N4CCCC4)c(F)cc3c1=O)[S+]([O-])CC2` (centres unmarked) [(e)], the minimal inhibitory concentration (MIC) in series [1] is 12.5 mg/L (≈ 35.7 µM); in series [2], over 50 mg/L; in [3], 12.5 mg/L (≈ 35.7 µM); in series [4], over 50 mg/L; in series [5] it was 25 mg/L (≈ 71.4 µM); in series [6], 50 mg/L (≈ 143 µM). For the same molecule, the MIC in [7] was found to be 50 mg/L (≈ 143 µM).
